Results taken from US20210395226A1, “SUBSTITUTED ARYL COMPOUND AND PREPARATION METHOD THEREFOR AND USE THEREOF” (SICHUAN KELUN-BIOTECH BIOPHARMACEUTICAL CO., LTD., priority 2018, published 2021).

Assays:
[1] = target: T1, Adenosine A1 receptor (human) membrane (Homo sapiens, UniProt P30542); test: Determination of competitive inhibition constant (Ki) for adenosine A1 receptor, [3H]-DPCPX radioligand; assay type: binding; settings: 1.0 nM [3H]-DPCPX
T1 construct: purchased PerkinElmer ES-010-M400UA
T1 sequence (P30542 1-326): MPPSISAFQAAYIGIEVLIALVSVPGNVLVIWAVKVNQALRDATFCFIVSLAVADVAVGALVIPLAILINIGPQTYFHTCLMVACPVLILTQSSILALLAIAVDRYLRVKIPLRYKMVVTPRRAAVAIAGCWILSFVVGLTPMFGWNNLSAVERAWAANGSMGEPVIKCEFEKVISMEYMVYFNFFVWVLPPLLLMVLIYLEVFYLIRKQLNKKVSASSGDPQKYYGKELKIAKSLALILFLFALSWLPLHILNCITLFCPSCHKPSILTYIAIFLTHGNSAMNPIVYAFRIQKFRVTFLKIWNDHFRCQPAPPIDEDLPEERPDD
Description: (§1) Test Example 1: Determination of Competitive Inhibition Constant (Ki) for Adenosine A1 and A2a Receptors
[^3H]-DPCPX (PerkinElmer, NET974250UC),
Adenosine A1 receptor (human) membrane (PerkinElmer, ES-010-M400UA),
assay buffer for A1 (25 mM HEPES, 5 mM MgCl2, 1 mM CaCl2, 100 mM NaCl, pH7.4), used to dilute adenosine A1 receptor (human) membrane and [^3H]-DPCPX;
wash buffer for A1 (25 mM HEPES, 5 mM MgCl2, 1 mM CaCl2, 100 mM NaCl, pH7.4);
(§2) Adenosine A1 receptor membrane was diluted to 0.025 μg/μl with assay buffer for A1, and Adenosine A2a receptor membrane was diluted to 0.05 μg/μl with assay buffer for A2a, so as to obtain Adenosine A1 receptor membrane dilution and Adenosine A2a receptor membrane dilution.
(§3) The compound to be tested and CGS-15943 were diluted with DMSO, and 1 W of the compound to be tested, high value control (0.5% DMSO), low value control (1000 nM CGS-15943) were added to a 96-well plate, and 100 W of Adenosine A1 receptor membrane dilution (containing 2.5 μg of membrane) was added to each well of the 96-well plate to obtain A1 detection plate; following the same steps, 100 W of Adenosine A2a receptor membrane dilution (containing 5.0 μg membrane) was added to each well of the 96-well plate to obtain A2a detection plate.
(§4) To the A1 detection plate, 100 μl of radioisotope-labeled ligand [^3H]-DPCPX (diluted with assay buffer for A1, working concentration of which was 1.0 nM) was added; and to the A2a detection plate, 100 μl of radioisotope-labeled ligand [^3H]-CGS-21680 (diluted with assay buffer for A2a, working concentration of which was 6.0 nM) was added. The A1 and A2a detection plates were sealed with tape, and incubated at room temperature for 1 h and 2 h, respectively.
(§5) Unifilter-96 GF/C filter plates were prepared, 50 μl of 0.3% PEI was added to each well of the Unifilter-96 GF/C filter plates, and the resulting filter plates were incubated at room temperature for not less than 0.5 h.
(§6) After the incubation was completed, the reaction solution was transferred from the A1 detection plate and the A2a detection plate to two Unifilter-96 GF/C filter plates, and washed with pre-cooled wash buffer for A1 and wash buffer for A2a, and then the filter plates were dried, sealed at bottom, then 50 W of Microscint 20 fluid scintillation cocktail was added, and then the filter plates were sealed at top, and counted by MicroBeta2 Reader.
(§7) Inhibition rate %=100−(signal value of test well−signal average value of low value control)/(signal average value of high value control−signal average value of low value control)*100.
(§8) EXCEL XLfit was used to fit IC50.
(§9) The calculation formula for competitive inhibition constant (Ki) was: Ki=IC50/(1+concentration of isotope-labeled ligand/Kd), wherein Kd was the dissociation constant of the isotope-labeled ligand.

[2] = target: T2, Adenosine A2a receptor (human) membrane (Homo sapiens, UniProt P29274); test: Determination of competitive inhibition constant (Ki) for adenosine A2a receptor, [3H]-CGS-21680 radioligand; assay type: binding; settings: for Ki: human A2a receptor membrane, 6.0 nM [3H]-CGS-21680, read-out: Ki(A2a); for Ki(A1)/Ki(A2a): selectivity ratio A1 over A2a
T2 construct: purchased PerkinElmer RBHA2AM400UA
Description: as §1
Adenosine A2a receptor (human) membrane (PerkinElmer, RBHA2AM400UA),
assay buffer for A2a (50 mM Tris-HCl, 10 mM MgCl2, 1 mM EDTA, pH7.4), used to dilute adenosine A2a receptor (human) membrane (human origin) and [^3H]-CGS-21680; and
wash buffer for A2a (50 mM Tris-HCl, 154 mM NaCl, pH7.4).
as §2, §3, §4, §5, §6, §7, §8, §9

ADORA2a/CHOK1 cells = target: T3, ADORA2a/CHOK1 cells (Homo sapiens, UniProt P29274); test: Inhibitory activity for ADORA2a/CHOK1 cells (cAMP detection, adenosine as agonist); assay type: cell-based; settings: for inhibition at 0.1 µM: CHO-K1, 100 nM compound, read-out: Inhibition rate at 100 nM; for inhibition at 1 µM: CHO-K1, 1000 nM compound, read-out: Inhibition rate at 1000 nM
T3 construct: host or cells: CHO-K1
Description: Test Example 2: Study on Inhibitory Activity for ADORA2a/CHOK1 Cells
ADORA2a/CHOK1 cells (Cobai, CBP71017).
FBS was added to Ham's F-12 medium to a concentration of 10% (v/v), Zeocin was added to a final concentration of 200 μg/mL, and Hygromycin B was added to a final concentration of 100 μg/mL, and the resulting mixture was stored at 4° C. for later use.
A certain amount of adenosine was precisely weighed and placed into a 1.5 mL EP tube, then a certain volume of cell culture medium was added, the resulting mixture was incubated at 37° C. for dissolution, thereby a 10 mM stock solution was prepared. The stock solution was diluted with cell culture medium at 1:1000 to get 10 μM adenosine solution.
The compound to be tested was dissolved in DMSO to form a 10 mM stock solution, and the stock solution was stored in a refrigerator at 4° C. for later use. The stock solution was diluted with the 10 μM of adenosine solution to 2000 nM or 200 nM for later test.
(1) CHO-K1 cells stably expressing ADORA2A receptor were cultured in a 37° C., 5% CO2 cell incubator. When the cell confluence reached about 80%, the cells were digested by trypsin, dispersed and counted; (2) the cell concentration was adjusted to 6×10^5 cells/mL according to the counting results; (3) the cells was inoculated into a white 384-well cell culture plate at 5 μL per well (about 3000 cells/well).
All groups were provided with multiple wells, the adenosine-free cell culture medium was added to the wells of the Blank group (5 μL/well); 10 μM adenosine solution was added to the wells of the Agonist group (5 μL/well); the diluted compound was added to the wells of the test compound group (5 μL/well). After the addition of the compound was completed, the 384-well plate was centrifuged at 2500 rpm for 30 seconds to fully mix the compound and the medium, then placed in a 25° C. incubator and incubated for 30 min.
A certain volume of cAMP-d2 was taken, and diluted by adding Lysis & Detection Buffer at the ratio of 1:5 to prepare Solution A.
A certain volume of cAMP-Cryptate was taken, and diluted by adding Lysis & Detection Buffer at the ratio of 1:5 to prepare Solution B.
(2) After 30 min of incubation in step 2 was completed, addition of detection solution was carried out. The 384-well plate was taken out, 5 μL of Solution A was added to each well, and then 5 μL of Solution B was added to each well, then the 384-well plate was covered with sealing membrane, centrifuged at 2500 rpm for 30 s (to fully mix the detection solution and medium), and incubated in a thermostat at 25° C. for 1 h.
After the incubation, the 384-well plate was taken out, and detected by PHERA Star FS to read data, detection wavelength: 620 nm/665 nm.
inhibition rate %=(1−(RCompound−RBlank)/(RAgonist−RBlank))*100%
wherein, RCompound represented the R Value of the test compound group, RAgonist represented the R value of the Agonist group, and RBlank represented the R value of the Blank group.

T2 sequence (P29274 whole entry): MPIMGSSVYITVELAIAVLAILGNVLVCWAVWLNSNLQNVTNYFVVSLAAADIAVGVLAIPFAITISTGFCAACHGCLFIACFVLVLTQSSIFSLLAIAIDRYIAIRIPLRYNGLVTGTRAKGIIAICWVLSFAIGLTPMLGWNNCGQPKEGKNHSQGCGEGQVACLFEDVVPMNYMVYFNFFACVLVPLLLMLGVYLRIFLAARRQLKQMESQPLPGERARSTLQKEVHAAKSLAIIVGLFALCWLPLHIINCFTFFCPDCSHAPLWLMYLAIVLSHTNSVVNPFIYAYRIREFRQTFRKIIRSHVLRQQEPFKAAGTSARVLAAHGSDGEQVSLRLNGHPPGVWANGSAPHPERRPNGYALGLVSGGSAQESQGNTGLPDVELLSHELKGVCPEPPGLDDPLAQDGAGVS
T3 sequence (P29274 whole entry): as above

SMILES	Ki [1] [nM]	Ki [2] [nM]	Ki(A1)/Ki(A2a) [2]	inhibition at 0.1 µM (ADORA2a/CHOK1 cells) [%]	inhibition at 1 µM (ADORA2a/CHOK1 cells) [%]
Cc1ncnc2ccc(-c3c(C#N)cc(NC(=O)N4CCOCC4)nc3-c3ccc(F)cc3)cc12 [Compound 43, N-(4-cyano-6-(4-fluorophenyl)-5-(4-methylquinazolin-6-yl)pyridin-2-yl) morpholine-4-carboxamide]	134	1.36	98.3	59.1	100
Cc1ncnc2ccc(-c3c(-c4ccc(F)cc4)nc(NC(=O)N4CCOCC4)nc3C3CC3)cc12 [Compound 44, N-(4-cyclopropyl-6-(4-fluorophenyl)-5-(4-methylquinazolin-6-yl)pyrimidin-2-yl)morpholine-4-carboxamide]	931	14.5	64.2	64.8	104
